Test results from the supplement of paper PMC5908809.

Columns and labels:
[1] = tested on: normal NK cells expanded with K562-aAPC; assay: percent inhibition of viability; higher = more inhibition; details: 72 h, IL-2 2.5 ng/mL
Protocol: (§1)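 Drug sensitivity and resistance testing on K562-aAPC-expanded normal NK cells: 5 concentrations (10-fold steps over a 10,000-fold range), 72 h at 37 °C, viability by CellTiter-Glo normalised to DMSO and benzethonium chloride controls; DSS from the fitted curve.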

DERL-7 (IL-2 2.5 ng/mL) [2] = assay: as above; details: 72 h
IMC-1 (IL-2 20 ng/mL) [3] = assay: as above; details: 72 h
KAI3 (IL-2 2.5 ng/mL) [4] = assay: as above; details: 72 h
KHYG-1 (IL-2 2.5 ng/mL) [5] = assay: as above; details: 72 h
NK-92 (IL-2 2.5 ng/mL) [6] = assay: as above; details: 72 h
NK-YS (IL-2 2.5 ng/mL) [7] = assay: as above; details: 72 h
NKL (IL-2 2.5 ng/mL) [8] = assay: as above; details: 72 h
SNK-6 (IL-2 2.5 ng/mL) [9] = assay: as above; details: 72 h
YT (IL-2 2.5 ng/mL) [10] = assay: as above; details: 72 h
[11] = tested on: normal primary NK cells, pool 1 (3 donors) (IL-2 2.5 ng/mL); assay: as above; details: 72 h
[12] = tested on: normal primary NK cells, pool 1 (3 donors), resting (IL-2 0 ng/mL); assay: as above; details: 72 h
[13] = tested on: normal primary NK cells, pool 2 (3 donors) (IL-2 2.5 ng/mL); assay: as above; details: 72 h
[14] = tested on: normal primary NK cells, pool 3 (3 donors) (IL-2 2.5 ng/mL); assay: as above; details: 72 h
[15] = tested on: normal NK cells expanded with K562-aAPC; assay: drug sensitivity score (DSS) (DSS units); higher = more sensitive; extreme values may be limits of the assay; details: 72 h; IL-2 2.5 ng/mL
Protocol: as §1

DERL-7 (IL-2 2.5 ng/mL) [16] = assay: as above; details: 72 h
IMC-1 (IL-2 20 ng/mL) [17] = assay: as above; details: 72 h
KAI3 (IL-2 2.5 ng/mL) [18] = assay: as above; details: 72 h
KHYG-1 (IL-2 2.5 ng/mL) [19] = assay: as above; details: 72 h
NK-92 (IL-2 2.5 ng/mL) [20] = assay: as above; details: 72 h
NK-YS (IL-2 2.5 ng/mL) [21] = assay: as above; details: 72 h
NKL (IL-2 2.5 ng/mL) [22] = assay: as above; details: 72 h
SNK-6 (IL-2 2.5 ng/mL) [23] = assay: as above; details: 72 h
YT (IL-2 2.5 ng/mL) [24] = assay: as above; details: 72 h
[25] = tested on: normal primary NK cells, pool 1 (3 donors) (IL-2 2.5 ng/mL); assay: as above; details: 72 h
[26] = tested on: normal primary NK cells, pool 1 (3 donors), resting (IL-2 0 ng/mL); assay: as above; details: 72 h
[27] = tested on: normal primary NK cells, pool 2 (3 donors) (IL-2 2.5 ng/mL); assay: as above; details: 72 h
[28] = tested on: normal primary NK cells, pool 3 (3 donors) (IL-2 2.5 ng/mL); assay: as above; details: 72 h

NC1(c2ccc(-c3nc4ccn5c(=O)[nH]nc5c4cc3-c3ccccc3)cc2)CCC1 [MK-2206] (max concentration tested 1000 nM)
percent inhibition of viability [%]
Details	0.1 nM	1 nM	10 nM	100 nM	1000 nM
DERL-7 (IL-2 2.5 ng/mL) [2]	-1.61	2.78	9.98	34.8	76
IMC-1 (IL-2 20 ng/mL) [3]	-4.35	-1.09	-0.11	-1.78	9.7
KAI3 (IL-2 2.5 ng/mL) [4]	0.47	-1.02	11.1	11.8	17.4
KHYG-1 (IL-2 2.5 ng/mL) [5]	-0.27	8.2	6.87	6.05	14.9
NK-92 (IL-2 2.5 ng/mL) [6]	-0.6	-11	14.7	21.1	42.8
NK-YS (IL-2 2.5 ng/mL) [7]	2	1.38	5.87	2.52	14.5
NKL (IL-2 2.5 ng/mL) [8]	-12.3	-6.86	-5.82	11.8	4.37
SNK-6 (IL-2 2.5 ng/mL) [9]	-2.51	-8.62	3.89	0.46	24.3
YT (IL-2 2.5 ng/mL) [10]	-0.31	-0.89	5.71	2.26	10.1
[1]	-2.31	2.49	7.6	28.5	45.6
[11]	-0.91	-7.29	2.37	6.7	21.3
[12]	11.9	-0.15	13.2	11.8	43
[13]	-7.56	2.73	8.98	12.9	34.8
[14]	-11.3	-6.35	-0.77	8.45	19.7

Details	drug sensitivity score
DERL-7 (IL-2 2.5 ng/mL) [16]	8.28
IMC-1 (IL-2 20 ng/mL) [17]	0
KAI3 (IL-2 2.5 ng/mL) [18]	1.8
KHYG-1 (IL-2 2.5 ng/mL) [19]	0.23
NK-92 (IL-2 2.5 ng/mL) [20]	4.95
NK-YS (IL-2 2.5 ng/mL) [21]	0.39
NKL (IL-2 2.5 ng/mL) [22]	0
SNK-6 (IL-2 2.5 ng/mL) [23]	0.95
YT (IL-2 2.5 ng/mL) [24]	0
[15]	5.95
[25]	1.31
[26]	3.29
[27]	2.88
[28]	1.47
